Tests used:
Format in all cases: functional
[1] = system: Aedes aegypti; assay: Insecticidal activity against Aedes aegypti assessed as insect mortality at 2 ppm
[2] = system: Aedes aegypti; assay: Insecticidal activity against Aedes aegypti assessed as lethal compound dose per mosquito measured after 24 hr post topical application
[3] = system: Planorbella trivolvis; assay: Molluscicidal activity against Planorbella trivolvis
[4] = system: Pomacea canaliculata; assay: Molluscicidal activity against Pomacea canaliculata assessed as mortality at 200 uM after 24 hr
[5] = system: Pomacea canaliculata; assay: Molluscicidal activity against Pomacea canaliculata
[6] = system: Pomacea canaliculata; assay: Molluscicidal activity against Pomacea canaliculata assessed as mortality at 75 uM after 24 hr

O=C(/C=C/C=C/CCCCCCc1ccc2c(c1)OCO2)N1CCCCC1
mortality at 2 ppm [1]: 20%

CC(C)NC(=O)/C=C/C=C/CCCCCCc1ccc2c(c1)OCO2
mortality at 2 ppm [1]: 80%

C=CCCCCCCCCC(=O)N1CCCCC1CC (stereo unspecified) [2-ethyl-1-undec-10-enoyl-piperidine]
LD50 [2]: 0.8 µg

C/C=C\C#CC#C/C=C\C(=O)OC [(2Z,8Z)-MATRICARIA ACID METHYL ESTER]
LC50 [3]: 24 µM

CC1(C)CC[C@]2(C(=O)O)CC[C@]3(C)C(=CC[C@@H]4[C@@]5(C)CC[C@H](O[C@@H]6O[C@H](CO)[C@@H](O)[C@H](O)[C@H]6O)[C@@](C)(CO)[C@@H]5CC[C@]43C)[C@@H]2C1 [Hederagenin-3-O-beta-D-glucopyranoside]
LC50 [3]: 30 µM

COC(=O)N(C(=O)N1CO[C@@]2(C(=O)OC)Cc3cc(Cl)ccc3C2=N1)c1ccc(OC(F)(F)F)cc1 [INDOXACARB]
mortality at 2 ppm [1]: 40%

CC1OC(C)OC(C)OC(C)O1 (stereo unspecified) [METALDEHYDE]
mortality at 200 µM [4]: 100%
LC50 [5]: 30 µM

O=C(/C=C/C=C/c1ccc2c(c1)OCO2)N1CCCCC1 [PIPERINE]
LD50 [2]: 8.13 µg

CC1=CC(=O)C2C3C1C2(C)CCCC3(C)C (stereo unspecified) [VULGARONE B]
mortality at 75 µM [6]: 100%
LC50 [5]: 30 µM
